For one molecule, IC50 results are on record in ChEMBL document CHEMBL1131489, “Dihydropyrancarboxamides related to zanamivir: a new series of inhibitors of influenza virus sialidases. 2. Crystallographic and molecular modeling study of complexes of 4-amino-4H-pyran-6-carboxamides and sialidase from influenza virus types A and B” (J Med Chem, 1998).

In the assay the target is Neuraminidase (Influenza A virus (A/Puerto Rico/8/1934(H1N1)), UniProt P03468).
Chain of Neuraminidase (Influenza A virus (A/Puerto Rico/8/1934(H1N1)), UniProt P03468) (P03468 whole entry): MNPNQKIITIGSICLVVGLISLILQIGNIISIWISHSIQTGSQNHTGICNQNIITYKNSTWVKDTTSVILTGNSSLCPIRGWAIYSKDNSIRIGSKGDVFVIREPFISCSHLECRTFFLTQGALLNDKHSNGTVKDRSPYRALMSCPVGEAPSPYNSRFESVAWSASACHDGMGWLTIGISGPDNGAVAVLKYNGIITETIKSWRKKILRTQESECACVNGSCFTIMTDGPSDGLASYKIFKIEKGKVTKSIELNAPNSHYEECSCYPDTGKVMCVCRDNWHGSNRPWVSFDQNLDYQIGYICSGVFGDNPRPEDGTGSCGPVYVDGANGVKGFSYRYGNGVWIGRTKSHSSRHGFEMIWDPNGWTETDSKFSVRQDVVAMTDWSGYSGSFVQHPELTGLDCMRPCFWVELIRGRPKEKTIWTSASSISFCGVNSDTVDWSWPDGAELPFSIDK

`CC(=O)N[C@H]1[C@H]([C@H](O)[C@H](O)CO)O[C@](O)(C(=O)O)C[C@@H]1O` came in with an IC50 of 1000 µM.

By IC50 is commonly meant the concentration that inhibits the measured activity by half. A high value points to a need for much substance.
